The structures appear in SMILES notation.

The test concerns the target T1, Sentrin-specific protease 1 (Homo sapiens, UniProt Q9P0U3).
T1 sequence (Q9P0U3 whole entry): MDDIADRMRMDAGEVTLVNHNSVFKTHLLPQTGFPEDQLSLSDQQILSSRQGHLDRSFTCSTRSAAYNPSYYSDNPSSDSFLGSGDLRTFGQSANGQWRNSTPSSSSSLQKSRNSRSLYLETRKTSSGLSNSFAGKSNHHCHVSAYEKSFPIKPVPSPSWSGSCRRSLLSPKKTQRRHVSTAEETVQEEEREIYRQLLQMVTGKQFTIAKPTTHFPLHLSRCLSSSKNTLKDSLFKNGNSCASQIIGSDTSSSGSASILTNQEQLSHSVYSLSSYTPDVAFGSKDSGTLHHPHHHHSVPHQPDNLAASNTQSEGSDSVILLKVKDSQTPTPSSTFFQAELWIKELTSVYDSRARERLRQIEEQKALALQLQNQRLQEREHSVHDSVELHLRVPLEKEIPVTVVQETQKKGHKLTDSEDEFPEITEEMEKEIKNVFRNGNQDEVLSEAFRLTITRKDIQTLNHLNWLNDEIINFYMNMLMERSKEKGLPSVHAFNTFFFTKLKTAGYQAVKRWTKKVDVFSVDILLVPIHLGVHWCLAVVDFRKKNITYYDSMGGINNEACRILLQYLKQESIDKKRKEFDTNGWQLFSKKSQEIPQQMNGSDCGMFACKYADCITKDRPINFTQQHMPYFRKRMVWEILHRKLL

For orientation: IC50 means the concentration that gives 50% inhibition. A lower IC50 goes with inhibition by little substance. As to `O=C(Cc1cccc2ccccc12)NC(NC(=S)Nc1ccccc1Cl)C(Cl)(Cl)Cl` (stereo unspecified) [2-(1-naphthyl)-N-[2,2,2-trichloro-1-({[(2-chlorophenyl)amino]carbonothioyl}amino)ethyl]acetamide], the IC50 was 8.36 µM. In turn, `CC1(C)CC(=O)C2Sc3ccccc3N=C2C1` (stereo unspecified) [2,2-Dimethyl-2,3-dihydro-1H,10H-phenothiazin-4-one] yielded an IC50 of 29 µM. Next, `COc1nccnc1NS(=O)(=O)c1ccc(NC(=S)NC(=O)c2ccc(F)cc2)cc1` [4-[3-(4-Fluoro-benzoyl)-thioureido]-N-(3-methoxy-pyrazin-2-yl)-benzenesulfonamide]: 11.6 µM; `CN(C)c1ccc(C=NNC(=O)C(=O)CC2=NC3(CCCC3)Cc3ccccc32)cc1` [MLS000589038]: 10.1 µM. For the molecule `N#CC1C(=N)Oc2cc(Nc3ccccc3)ccc2C1c1ccncc1` (stereo unspecified) [2-amino-7-anilino-4-pyridin-4-yl-4H-1-benzopyran-3-carbonitrile], the midpoint of inhibition, the IC50, lay at 41.9 µM. `CCOc1cc(C=c2[nH]c3n(c2=O)CCCCC=3)ccc1O` [MLS000774439] showed an IC50 of 9.57 µM.

`Oc1c2c(c(O)n1-c1ccccn1)C(c1ccccc1)C=CC2c1ccccc1` (stereo unspecified) [4,7-diphenyl-2-pyridin-2-yl-3a,4,7,7a-tetrahydroisoindole-1,3-dione] gave an IC50 of 10.8 µM. Consider `COc1ccc(-n2c(O)c3c(c2O)C(C(=O)c2ccccc2)N2CCCC32)cc1` (stereo unspecified) [MLS000762485], for which the IC50 is 31 µM.

The molecule `COc1ccc(-n2c(O)c3c(c2O)C(C(=O)c2ccc(Cl)cc2)N2CCCC32)cc1` (stereo unspecified) gave an IC50 of 5.56 µM.

In the case of `O=C1NC(=S)N/C1=C/c1cccc([N+](=O)[O-])c1O` [(5E)-5-[(2-hydroxy-3-nitrophenyl)methylidene]-2-sulfanylideneimidazolidin-4-one], the IC50 is more than 80 µM. Take `O=C1CC(=Nc2ccc(Cl)cc2)C(=O)N1c1ccc(Cl)cc1` [1-(4-chlorophenyl)-3-[(4-chlorophenyl)amino]pyrrole-2,5-dione]: the midpoint of inhibition, the IC50, lay at 21 µM. Next, `CCOC(=O)/C(C#N)=C/C=C1\C=Cc2ccccc2N1CC` [(E,4E)-2-cyano-4-(1-ethyl-2-quinolinylidene)-2-butenoic acid ethyl ester]: more than 80 µM. Molecule `Nc1cc([N+](=O)[O-])ccc1Nc1ccccc1` [SMR000271721] registered an IC50 of more than 80 µM. Consider `CC1=C(C#N)C(=O)NC(=O)C1=NNc1ccc(Br)cc1C(=O)O` [MLS001213177], for which inhibition was half-maximal at 18.1 µM (IC50).

As to `COc1ccc(C=Nn2c(O)csc2=S)cc1Br` [3-[(E)-(3-bromo-4-methoxyphenyl)methylideneamino]-2-sulfanylidene-4-thiazolidinone], the IC50 stood at 19.3 µM. Next, `O=C(O)c1ccc(N=NCc2cccc3nccnc23)cc1` [4-[(2E)-2-(5-quinoxalinylmethylidene)hydrazinyl]benzoic acid]: 15.1 µM; `COc1ccc(OC)c(CCNC(=O)c2ccc3c(=O)[nH]c4c(C(=O)NC(C)C)sc(=S)n4c3c2)c1`: more than 80 µM; `CC(=O)Oc1ccc(-n2c(O)c3c(c2O)C(C(=O)c2ccc(Cl)cc2)N2CCCC32)cc1` (stereo unspecified) [Acetic acid 4-[4-(4-chloro-benzoyl)-1,3-dioxo-octahydro-pyrrolo[3,4-a]pyrrolizin-2-yl]-phenyl ester]: 7.5 µM. Next, `CCOC1=CC(=Cc2sc(=O)[nH]c2N)C=CC1=O`: 10.9 µM; `O=[N+]([O-])c1ccc(C/N=N/c2ccccc2)cc1`: 21.5 µM; `CCN1C(=O)c2cccc3c(NC(=O)c4cccc(-n5c(O)ccc5O)c4)ccc1c23` [3-(2,5-dioxopyrrolidin-1-yl)-N-(1-ethyl-2-oxobenzo[cd]indol-6-yl)benzamide]: 17.9 µM.

Consider `Nc1ccc2c(c1)C(N=O)c1cc([N+](=O)[O-])ccc1-2` (stereo unspecified) [N-(2-azanyl-7-nitro-fluoren-9-ylidene)hydroxylamine], for which the IC50 came out at 18.1 µM. For the molecule `CCN(CC)CCNc1cccc2sc3ccccc3c(=O)c12` [SMR001821489], the IC50 was more than 80 µM. Next, `O=C1CCCC2=Nc3cc(Cl)ccc3SC12` (stereo unspecified) [MLS000333002]: 13.7 µM. Next, `O=C1CC(=O)c2cccc3cccc1c23` [3-hydroxy-1H-phenalen-1-one]: 13.1 µM; `O=NC1c2cc([N+](=O)[O-])ccc2-c2cc(Cl)c(NC(=O)C(F)(F)F)cc21` (stereo unspecified) [MLS002707326]: 12.5 µM.

These data come from BindingDB's records for doi:10.7270/Q2MC8XNQ (Burnham Center For Chemical Genomics, 2012).
